Assay results: patent US11331290B2, “Niclosamide for the treatment of cancer metastasis” (Max-Delbrück-Centrum für Molekulare Medizin in der …, priority 2011, dated 2022)

Tested on: S100A4 mRNA
Test: S100A4 mRNA expression by qRT-PCR in colon cancer cells
Assay type: cell-based, human
Description: Total RNA was isolated from 4×10^5 cells plated in a 6-well-plates 24 hour before cells were lyzed with Trizol Reagent (Invitrogen). RNA was extracted with Trizol RNA extraction reagent (Invitrogen) according to the manufacturer's instructions. Quantification of the RNA concentration was performed with Nanodrop (Peqlab) and 50 ng total RNA was reverse transcribed with random hexamers in 10 mM MgCl2; 1× RT-buffer, 250 μM pooled dNTPs, 1 U per μL RNAse inhibitor and 2.5 U per μL MuLV reverse transcriptase (all Applied Biosystems). Reaction occurred at 42° C. for 15 minutes, 99° C. for 5 minutes and subsequent cooling at 5° C. for 5 minutes. The cDNA product was amplified in a total volume of 10 μL in 96-well-plates in the LightCycler 480 (Roche) using the following conditions: 95° C., 10 minutes, followed by 45 cycles of 95° C. for 10 seconds, 61° C. for 30 seconds and 72° C. for 4 seconds. For S100A4 cDNA quantification the following primer and probes were used: forward primer 5′-CTCAGCGCTTCTTCTTTC-3′, reverse primer 5′-GGGTCAGCAGCTCCTTTA-3′, fluorescein isothiocyanate probe 5′-[…]-3′, LCRed640-probe 5′-[…]-3′. For cDNA quantification of the housekeeping gene glucose-6-phosphate dehydrogenase (G6PD) the hG6PDH Roche Kit (Roche Diagnostics, Mannheim, Germany) was used according to manufacturers instructions. Data analysis was performed with LightCycler® 480 Software release 1.5.0 SP3. For each qRT-PCR reaction a mean of the duplicate was calculated. Each mean value of the expressed gene was normalized to the respective mean amount of the G6PD cDNA.
(A) Determination of the cytotoxicity of niclosamide on HCT116 cells. Cells were treated with increasing concentrations of niclosamide for 24 hours and cell viability was measured. (B) Effect of increasing concentrations of niclosamide on S100A4 expression. HCT116 cells were treated with increasing concentrations of niclosamide for 24 hours. S100A4 expression was determined by quantitative reverse-transcription-polymerase chain reaction (qRT-PCR) and immunoblot. (C) Time-dependency of niclosamide effect on S100A4 expression. HCT116 cells were treated with a single dose of 1 μM niclosamide for 24 hours and S100A4 expression was analyzed by qRT-PCR and immunoblot at indicated time points. Black bar indicates the chosen treatment conditions for further experiments. (D) Effect of daily doses of niclosamide on S100A4 expression. HCT116 cells were treated daily with 1 μM niclosamide and S100A4 expression was analyzed by qRT-PCR and immunoblot. Data is given as mean±SD (n>2). Differences in treated groups were compared with the control group by two-sided one-way analysis of variances and Bonferroni post hoc multiple comparison test.
(E) Effect of niclosamide in HCT116-vector and HCT116-S100A4 cells. HCT116-vector and HCT116-S100A4 cells were treated with 1 μM niclosamide for 24 hours and S100A4 expression was analyzed by qRT-PCR and immunoblot. Data is given as mean±SD (n>2). Comparison of niclosamide vs. solvent-treated cells was analyzed with Student's t test.
(A) S100A4 expression under niclosamide treatment. Cells were treated with 1 μM niclosamide for 24 hours. S100A4 expression was analyzed with qRT-PCR and immunoblot. (B) Cell migration under niclosamide treatment. Migration rates of cells treated with 1 μM niclosamide for 24 hours were determined in a Boyden chamber assay values were normalized to solvent-treated SW620 cells. (C) Cell invasion under niclosamide treatment. Cells were seeded onto Matrigel covered transwells and treated with 1 μM niclosamide for 24 hours. Invaded cells in the lower chamber were counted and normalized to solvent-treated SW620 cells. Differences in solvent vs. niclosamide-treated cells were analyzed by Student's t test. Data represent mean±SE of at least two independent experiments each performed in triplicate. (D) Directed migration under niclosamide treatment. Wounds of 300 μM width were set in a 60% confluent monolayer of cells on day 1. […]

SMILES: O=C(Nc1ccc([N+](=O)[O-])cc1Cl)c1cc(Cl)ccc1O [niclosamide, 2′,5-dichloro-4′-nitrosalicylanilide]
- S100A4 mRNA (DLD-1, 1 μM, 24 h, mRNA barely detectable): remained unchanged
- S100A4 mRNA expression, mean difference control vs niclosamide (HAB-68mut, 1 μM, 24 h): 0.55
- S100A4 mRNA expression, mean (relative to HCT116 control) (HAB-68mut, 1 μM, 24 h, control 1.17): 0.62
- S100A4 mRNA expression, mean (relative to HCT116 control) (HAB-92 wt, 1 μM, 24 h, control 0.03, statistically not significant): 0.01
- S100A4 mRNA expression, mean difference control vs niclosamide (HAB-92 wt, 1 μM, 24 h, statistically not significant): 0.02
- S100A4 mRNA, mean % (HCT116, 1 μM daily for 3 days, 24 hours post-treatment, control 101.9%): 58.0%
- S100A4 mRNA, mean % (HCT116, 1 μM daily for 3 days, 48 hours post-treatment, control 98.1%): 44.4%
- S100A4 mRNA, mean % (HCT116, 1 μM daily for 3 days, 72 hours post-treatment, control 100.0%): 57.9%
- S100A4 mRNA, mean % of solvent-treated control (HCT116, 1 μM daily, 24 hours): 46.0%
- S100A4 mRNA, mean % of solvent-treated control (HCT116, 1 μM daily, 48 hours): 44.5%
- S100A4 mRNA, mean % of solvent-treated control (HCT116, 1 μM daily, 72 hours): 59.5%
- S100A4 mRNA expression, mean difference control vs niclosamide (HCT116, 1 μM, 24 h (relative scale)): 0.54
- S100A4 mRNA expression, mean (relative to HCT116 control) (HCT116, 1 μM, 24 h, control 1.00): 0.46
- S100A4 mRNA, mean % of solvent-treated control (HCT116, 1 μM, single dose, 18 hours): 47.5%
- S100A4 mRNA, mean % of solvent-treated control (HCT116, 1 μM, single dose, 24 h): 47.4%
- S100A4 mRNA and protein levels (HCT116, 1 μM, single dose, after 30-48 hours): returned to the control level
- S100A4 mRNA, mean % of solvent-treated control (HCT116, 1.5 μM, 24 h): 39.2%
- S100A4 mRNA, mean % of solvent-treated control (HCT116, 2 μM, 24 h): 39.1%
- S100A4 mRNA, mean % of solvent-treated control (HCT116, 2.5 μM, 24 h): 36.7%
- S100A4 mRNA, mean difference control vs niclosamide (HCT116, 24 hours post-treatment): 43.9%
- S100A4 mRNA, mean difference control vs niclosamide (HCT116, 48 hours post-treatment): 53.7%
- S100A4 mRNA, mean difference control vs niclosamide (HCT116, 72 hours post-treatment): 42.1%
- change in S100A4 expression (HCT116, concentrations below 1 μM, 24 h): No change
- S100A4 mRNA, mean difference control vs niclosamide (HCT116-S100A4, 1 μM, 24 h, not statistically significant): 104.7%
- S100A4 mRNA, mean % (HCT116-S100A4, 1 μM, 24 h, solvent control 717.0%, not statistically significant): 612.3%
- S100A4 mRNA, mean % of solvent-treated control (HCT116-vector, 1 μM, 24 h): 57.8%
- S100A4 mRNA, mean difference control vs niclosamide (HCT116-vector, 1 μM, 24 h): 42.0%
- S100A4 mRNA, mean difference control vs niclosamide (LS174T, 1 μM, 24 h): 51.9%
- S100A4 mRNA, mean % (LS174T, 1 μM, 24 h, solvent control 65.5%): 13.5%
- S100A4 mRNA, mean difference control vs niclosamide (SW480, 1 μM, 24 h): 35.0%
- S100A4 mRNA, mean % (SW480, 1 μM, 24 h, solvent control 41.0%): 6.0%
- S100A4 mRNA, mean difference control vs niclosamide (SW620, 1 μM, 24 h): 68.8%
- S100A4 mRNA, mean % (SW620, 1 μM, 24 h, solvent control 100.0%): 31.2%
